The record followed here is BindingDB's records for doi:10.1016/j.bmcl.2005.02.084 (Bristol-Myers Squibb Pharmaceutical Research Institute, 2005).

pIC50: −log10 of the molar value.

The experiment can be described thus: Inhibitory concentration in CCR4-transfected murine pre-B L1.2 cells (chemotaxis assay).

A word on the pIC50: it is the IC50 on a negative log10 scale, so that one unit is a factor of ten. Higher therefore signals a low IC50. `CCN(CC)CCCC(C)Nc1nccc(NCc2ccc(Cl)cc2Cl)n1` (stereo unspecified) [N*4*-(2,4-Dichloro-benzyl)-N*2*-(4-diethylamino-1-methyl-butyl)-pyrimidine-2,4-diamine]: the pIC50 is 5.30.
